Measurements: publication PMC11487561 (ACS Chemical Neuroscience, 2024)
Like-named read-outs stand apart in the source and are kept apart here.

How the values were obtained:
[1] = molecular target: T1, human M4 (hM4) (Homo sapiens, UniProt P08173); experiment: Calcium mobilization assay, hM4/Gqi5-CHO cells, EC20 acetylcholine (PAM); type: cell-based; settings: for Emax: read-out: hM4 %ACh Max; for fold loss in hM4 potency vs comparator: 14e vs 14g, 14c vs VU6007215; for fold decrease in hM4 activity with R1 larger than methyl: relative to the R1 = methyl analogue
T1 construct: expressed in transfected cells
T1 sequence (P08173 1-479): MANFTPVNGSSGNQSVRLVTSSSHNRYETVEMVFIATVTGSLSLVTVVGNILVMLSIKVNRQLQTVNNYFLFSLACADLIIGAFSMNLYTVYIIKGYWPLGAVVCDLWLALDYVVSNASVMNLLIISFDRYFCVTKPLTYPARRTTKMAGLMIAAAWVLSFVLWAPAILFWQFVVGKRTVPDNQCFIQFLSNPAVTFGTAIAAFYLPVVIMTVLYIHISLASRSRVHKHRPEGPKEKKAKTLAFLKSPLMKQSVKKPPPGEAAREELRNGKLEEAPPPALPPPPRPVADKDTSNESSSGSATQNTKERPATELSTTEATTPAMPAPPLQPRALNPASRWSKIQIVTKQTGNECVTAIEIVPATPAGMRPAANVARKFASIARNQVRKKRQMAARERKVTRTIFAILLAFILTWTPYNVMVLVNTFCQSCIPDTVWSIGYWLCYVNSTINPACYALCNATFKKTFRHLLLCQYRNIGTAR

[2] = Intrinsic clearance in rat liver microsomes; type: in vitro ADME; settings: pH 7.4; rat liver microsomes
Procedure: (§1) Intrinsic Clearance in Rat and Human Liver Microsomes
(§2) The in vitro intrinsic clearance (CL int) was investigated in commercially obtained hepatic microsomes from rat and human donors using the substrate depletion (i.e., loss-of-parent vs. time, or t 1/2 method) approach with analyte detection via liquid chromatography-tandem mass spectrometry (LC-MS/MS). For each species, mean %parent remaining values at each time point were calculated from replicates raw data (analyte:IS peak area ratios) and used to determine in vitro t 1/2 and CLint.
(§3) Experiments were carried out using a robot-assisted (TECAN model Evo 200). Compound was incubated (1 µM final concentration) in buffer (100 mM potassium phosphate pH 7.4 with 3 mM MgCl2) containing hepatic microsomes (0.5 mg/mL final concentration) from multiple species, discretely, at 37 °C under constant orbital shaking. After 5 minutes (pre-incubation), reactions were initiated by addition of nicotinamide adenine dinucleotide phosphate (NADPH, 1 mM final concentration). At selected time intervals (0, 3, 7, 15, 25, and 45 minutes) post-addition of NADPH, aliquots (50 µL) were taken and placed into a 96-shallow-well plate containing ice cold acetonitrile (150 µL) with carbamazepine (IS, 50 nM). The plates were then centrifuged (3000 rcf at 4 °C) for 10 minutes. The supernatants were transferred to a new 96-shallow-well daughter plate and diluted (1:1 v/v) with water (Milli-Q filtered). The plates were then sealed in preparation for LC-MS/MS analysis (see below).
(§4) Raw LC-MS/MS peak area data generated from the assay samples were used to construct natural log-transformed %parent remaining vs. time plots (using t = 0 minute post-NADPH addition sample data as starting point set to 100%). In vitro compound half-life (t 1/2) values were obtained using the following […]
(§5) k is the slope from linear regression analysis of the natural log-transformed data (using means from Where all replicates at each time point). Resulting t 1/2 values were then used to calculate hepatic CLint values according to the following equation and with the use of species-specific scale-up factors for liver weight (grams) per total body weight (kg): […]
(§6) CLint = in vitro t1/2 x 0.5 mg microsomes x 1 gram liver x kg body wt aScale-up factors used are 45 (rat) and 20 (human).2
(§7) Predicted hepatic clearance (CLhep) was calculated using the following equation: […]
(§8) Qh represents hepatic blood flow (mL/min/kg): 21 for human, 70 for rat, and 90 for mouse.
(§9) Prepared samples were injected (10 µL each) onto an AB Sciex Triple Quad 4500 mass spectrometer system with an Agilent 1260 Infinity II pump and autosampler. Mass spectrometer conditions are described in Table S1. Quantitation of compounds was performed via AB Sciex Multiquant software using the raw analyte:IS peak area ratios. The typical detection range was 0.5 ng/mL to ≥ 5,000 ng/mL utilizing a quadratic equation regression with 1/x2 weighting. […]
(§10) Table S1. LC-MS/MS Conditions*
(§11) Mobile phase A 0.5% Formic Acid in Water
(§12) Mobile phase B 0.5% Formic Acid in Acetonitrile
(§13) Gradient Time % Mobile Phase B

[3] = Intrinsic clearance in human liver microsomes; type: in vitro ADME; settings: pH 7.4; human liver microsomes
Procedure: as §1, §2, §3, §4, §5, §6, §7, §8, §9, §10, §11, §12, §13

[4] = Binding in plasma from rat (equilibrium dialysis); type: in vitro ADME; settings: read-out: rat fu,plasma
Procedure: (§14) Binding in plasma from rat and human.
(§15) Determination of compounds’ fraction unbound (f u) in plasma from rat and human was conducted in vitro via equilibrium dialysis using HTDialysis membrane plates. Dialysis membranes (four paired strips per HTD assay) were hydrated as described by the manufacturer and inserted into the HTD plate, which was assembled and prepared for sample addition by the dispensing of blank buffer (DPBS, 100 µL/well) into the ‘top half’ of each membrane-split well. Each compound was diluted into plasma from each species (5 µM final concentration), which was aliquoted in triplicate to the ‘bottom half’ of the prepared HTD plate wells. The HTD plate was sealed and incubated for 6 hours at 37 °C. Following incubation, each well (both top and bottom halves) were transferred (20 µL) to the corresponding wells of a 96-shallow-well (V-bottom) plate. The daughter plates were then matrix-matched (buffer side wells received equal volume of plasma, and plasma side wells received equal volume of buffer), and extraction solution (120 µL; acetonitrile containing 50 nM carbamazepine as IS) was added to all wells of both daughter plates to precipitate protein and extract test article. The plates were then sealed and centrifuged (3500 rcf) for 10 minutes at ambient temperature. Supernatant (60 µL) from each well of the daughter plates was then transferred to the corresponding wells of new daughter plates (96-shallow-well, V bottom) containing water (Milli-Q, 60 µL/well), and the plates were sealed in preparation for LC-MS/MS analysis (see below). fu was calculated as (analyte to IS MS peak area ratio from Trans-buffer side) / (analyte to IS MS peak area ratio from Cis-plasma side). Mean values for each species were calculated from 3 replicates.

[5] = Binding in plasma from human (equilibrium dialysis); type: in vitro ADME; settings: for fraction unbound at 6 h, 5 µM: human, plasma, read-out: human fu,plasma
Procedure: as §14, §15

[6] = Binding in brain homogenate from rat (equilibrium dialysis); type: in vitro ADME; settings: for rat fbrain: fraction unbound, equilibrium dialysis, rat brain homogenates; for fraction unbound at 6 h, 1 µM: rat, brain homogenate, in %, read-out: fu,brain (rat brain homogenate)
Procedure: Binding in brain homogenate from rat.
Determination of fraction unbound (f u) in brain homogenate from rat was conducted using the same methodology and procedure than described for plasma protein binding assay with the following modifications: 1) a final compound concentration of 1 μM was used, 2) naïve rat brains were homogenized in DPBS (1:3 composition of brain: DPBS, w/w) using a Mini-Bead Beater™ machine in order to obtain […]
The diluted fraction unbound (f u2) in brain was calculated as (analyte to IS MS peak area ratio from Trans-buffer side) / (analyte to IS MS peak area ratio from Cis-brain homogenate side). Undiluted fraction unbound for the brain was calculated using the following equation: […]
Mean values for each species were calculated from 3 replicates. […]

[7] = Rat plasma-to-brain level (PBL) cassette, brain distribution; type: in vivo; settings: SD rat, 0.2 mg/kg IV, 0.2 mg/kg; for Kp at 0.25 h / Kp uu at 0.25 h: male, Sprague-Dawley, rat, brain / plasma, iv
[8] = calcium mobilization, hM4/Gqi5-CHO cells, EC20 acetylcholine, read-out: hM4 EC50
[9] = calcium mobilization, hM4/Gqi5-CHO cells, EC20 acetylcholine, read-out: hM4 pEC50 (converted)
[10] = calcium mobilization, hM4/Gqi5-CHO cells, EC20 acetylcholine
[11] = fraction unbound, equilibrium dialysis
[12] = total brain to total plasma ratio
[13] = unbound brain to unbound plasma ratio

EC50 [1, 8]	Emax [1, 10]	hM4 pEC50 [1, 10]	SMILES	other results
> 30 µM			Cc1nc(C)c2c(n1)sc1c(N3CCCCC3)ncnc12 [14a]	EC50 [1, 9]: > 31.6 µM
5.6 µM	39%		Cc1nc(C)c2c(n1)sc1c(N3CCOCC3)ncnc12 [14b]	EC50 [1, 9]: 5.5 µM
1.6 µM	76%	5.80	Cc1nc(C)c2c(n1)sc1c(N3CC4(COC4)C3)ncnc12 [14c]	fold loss in hM4 potency vs comparator [1]: 11 fold
1.4 µM	60%	5.84	Cc1nc(C)c2c(n1)sc1c(N3CCC3)ncnc12 [14d]	
0.64 µM	77%	6.20	Cc1nc(C)c2c(n1)sc1c(N3CCC(F)(F)C3)ncnc12 [14e]	fold loss in hM4 potency vs comparator [1]: 2.2 fold
0.56 µM	56%	6.25	Cc1nc(C)c2c(n1)sc1c(NC3CCCC3)ncnc12 [14f]	
0.29 µM	52%	6.54	Cc1nc(C)c2c(n1)sc1c(N3CCCC3)ncnc12 [14g]	
0.16 µM	76%	6.81	Cc1nc(C)c2c(n1)sc1c(N3CC4CC4C3)ncnc12 (centres unmarked) [14i]	CLint scaled at 1 µM [2]: 1050 mL/min/kg; CLint scaled at 1 µM [3]: 177 mL/min/kg; fraction unbound at 6 h, 5 µM [4, 11]: 0.048; fraction unbound at 6 h, 5 µM ([4]; in %): > 0.05; fraction unbound at 6 h, 5 µM [5, 11]: 0.013; fraction unbound at 6 h, 5 µM ([5]; in %): 0.01 to 0.05; rat fbrain [6]: 0.012; fraction unbound at 6 h, 1 µM [6]: 0.01 to 0.05; Kp, brain:plasma ([7]; 0.25 h, total brain to total plasma ratio): 7.27; Kp,uu, brain:plasma ([7]; 0.25 h, unbound brain to unbound plasma ratio): 1.82; Kp at 0.25 h [7, 12]: > 5; Kp uu at 0.25 h [7, 13]: > 1
1.3 µM	70%	5.90	Cc1nc(C)c2c(n1)sc1c(NCc3ccc(C(C)(C)O)cc3)ncnc12 [14j]	EC50 ([1]; in μM, read-out: hM4 EC50): > 1 µM
1.2 µM	65%	5.94	COc1ccc(CNc2ncnc3c2sc2nc(C)nc(C)c23)cc1F [14k]	EC50 ([1]; in μM, read-out: hM4 EC50): > 1 µM
	38%		CCN(CC)c1nccc2c1sc1nc(C)nc(C)c12 [22a]	
> 10 µM	52%		Cc1nc(C)c2c(n1)sc1c(N3CCN(C)CC3)nccc12 [22b]	
	95%	6.52	Cc1nc(C)c2c(n1)sc1c(NC3CCC3)nccc12 [22c]	
0.13 µM	73%	6.87	Cc1nc(C)c2c(n1)sc1c(NC3CCCC3)nccc12 [22d]	
< 0.19 µM	58%		Cc1nc(C)c2c(n1)sc1c(N3CCCCC3)nccc12 [22e]	EC50 [1, 9]: 0.0741 µM; CLint scaled at 1 µM [2]: 3440 mL/min/kg; CLint scaled at 1 µM [3]: 134 mL/min/kg; fraction unbound at 6 h, 5 µM [4, 11]: 0.019; fraction unbound at 6 h, 5 µM [5, 11]: 0.007; fraction unbound at 6 h, 5 µM ([5]; in %): < 0.01; human fu,plasma ([5]; in %): highly bound; rat fbrain [6]: 0.004; fraction unbound at 6 h, 1 µM [6]: < 0.01; Kp at 0.25 h [7, 12]: 7.77; Kp uu at 0.25 h [7, 13]: 1.64
	89%	6.08	Cc1nc(C)c2c(n1)sc1c(NCc3ccc(C(C)(C)O)cc3F)nccc12 [22h]	
0.28 µM	86%		Cc1nc(C)c2c(n1)sc1c(NCc3ccc(C(C)(C)O)c(F)c3)nccc12 [22i]	fraction unbound at 6 h, 1 µM [6]: < 0.01
	66%		Cc1nc(CC(C)C)nc2sc3c(NCc4ccc(C(C)(C)O)cc4)nccc3c12 [22n]	fold decrease in hM4 activity with R1 larger than methyl [1]: > 66 fold
1.4 µM	97%	5.86	Cc1nc(C2CC2)nc2sc3c(NCc4ccc(C(C)(C)O)cc4)nccc3c12 [22o]	fold decrease in hM4 activity with R1 larger than methyl [1]: 9.3 fold
0.77 µM	81%		CCc1nc(C)c2c(n1)sc1c(NCc3ccc(C(C)(C)O)cc3)nccc12 [22p]	fold decrease in hM4 activity with R1 larger than methyl [1]: 4.0 fold
1 µM	65%	6.00	Cc1nc(C2CC2)nc2sc3c(N4CCCC4)nccc3c12 [22q]	fold decrease in hM4 activity with R1 larger than methyl [1]: > 13 fold
0.57 µM	109%		Cc1nc(C)c2c(n1)sc1c(C3CC3)nccc12 [23a]	
0.24 µM	86%		Cc1nc(C)c2c(n1)sc1c(CC(C)(C)C)nccc12 [23b]	
	92%	5.48	Cc1nc(C)c2c(n1)sc1c(NCc3ccc(C(C)(C)O)cc3)ncc(Cl)c12 [26a]	
0.69 µM	61%		Cc1nc(C)c2c(n1)sc1c(N3CCCC3)ncc(Cl)c12 [26b]	
			Cc1nc(C)c2c(n1)sc1c(NCc3ccc(C(C)(C)O)cc3)ncc(C3CC3)c12 [compound 27]	EC50 [1, 9]: > 31.6 µM
0.96 µM	62%		Cc1nc(C)c2c(n1)sc1c(NCc3ccc(C(C)(C)O)cc3)ncc(C#N)c12 [compound 28]	
